Laboratory results reported in ChEMBL document CHEMBL1131496, “Excitatory amino acid receptor ligands: resolution, absolute stereochemistry, and enantiopharmacology of 2-amino-3-(4-butyl-3-hydroxyisoxazol-5-yl)propionic acid” (J Med Chem, 1998).

How the values were obtained:
[1] = In vitro binding affinity against Metabotropic glutamate receptor using [3H](S)-glutamic acid; design: species or system Mus musculus
[2] = species: Rattus norvegicus; assay: Compound was tested for electrophysiological experiments using rat cortical wedge preparation; type: functional
[3] = target: Glutamate receptor ionotropic, AMPA (Mus musculus, UniProt P23818+P23819+Q9Z2W8+Q9Z2W9)
Description: Compound was tested for in vitro binding affinity against Ionotropic glutamate receptor AMPA using [3H]AMPA ligand

[4] = system: Mus musculus; assay: In vivo convulsant activity were tested in mice after intravenous administration.
[5] = system: Mus musculus; assay: In vivo convulsant activity were tested in mice after subcutaneous administration.; type: functional; details: sc

SMILES | IC50 [1] | EC50 [2] | IC50 [3] | ED50 [4] | ED50 [5]
CCCCc1c(O)noc1CC(N)C(=O)O (stereo unspecified) | 0.63 µM | 37 µM | 1.8 µM | 94 µmol/kg | 110 µmol/kg
CCCCc1c(O)noc1C[C@@H](N)C(=O)O | 0.57 µM | > 1000 µM | > 1000 µM | > 350 µmol/kg | 
CCCCc1c(O)noc1C[C@H](N)C(=O)O | 0.64 µM | 17 µM | 0.48 µM | 44 µmol/kg | 
N[C@@H](Cc1onc(O)c1Br)C(=O)O | 0.22 µM | 21 µM | 0.34 µM |  | 
N[C@H](Cc1onc(O)c1Br)C(=O)O | 0.15 µM | > 1000 µM | 32 µM |  | 
NC(Cc1onc(O)c1Br)C(=O)O (stereo unspecified) | 0.2 µM | 23 µM | 0.6 µM |  | 
Cc1onc(O)c1CC(N)C(=O)O [(R,S)-AMPA] | > 100 µM |  |  | 55 µmol/kg | 
N[C@@H](Cn1oc(=O)[nH]c1=O)C(=O)O [QUISQUALATE] | 0.025 µM | 7.3 µM |  |  | 
